Measured values taken from PubChem BioAssay (NCI).
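How tested: cells in 96-well plates exposed to compound for 48 hours at five concentrations. TGI marks complete inhibition of growth.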

Legend:
Test in all cases: inhibition of tumour cell growth, NCI panel, 48 h
[1] = test system: ACHN renal
[2] = test system: COLO 205 colon
[3] = test system: M14 melanoma
[4] = test system: MDA-N
[5] = test system: NCI-H460 lung
[6] = test system: SF-539 CNS
[7] = test system: SN12C renal
[8] = test system: SNB-19 CNS
[9] = test system: SNB-75 CNS
[10] = test system: SW-620 colon

| SMILES | TGI [1] [µM] | TGI [2] [µM] | TGI [3] [µM] | TGI [4] [µM] | TGI [5] [µM] | TGI [6] [µM] | TGI [7] [µM] | TGI [8] [µM] | TGI [9] [µM] | TGI [10] [µM] |
| --- | --- | --- | --- | --- | --- | --- | --- | --- | --- | --- |
| CCN(CC)CCN1C(=O)C(=O)N(c2cccc3ccccc23)C1=O | > 10 | > 10 | > 10 | > 10 | > 10 | > 10 | > 10 | > 10 | > 10 | > 10 |
| N#Cc1c(-c2ccc([N+](=O)[O-])cc2)cc(-c2ccc(Nc3ccnc4cc(Cl)ccc34)cc2)nc1N | > 72.6 | > 66 | 41.9 | 17.1 | > 73.2 | 55.4 | 17.6 | 47.4 | 34.6 | > 100 |
| C[C@H]1O[C@@H](C(C)(C)C)OC(=O)[C@@H]1C(OC(=O)c1ccccc1)c1cccc2ccccc12 (stereo not given in full) | > 100 | > 100 | > 100 | > 100 | > 100 | > 100 | > 100 | > 100 | > 100 | > 100 |
| Nc1c2cc3ccc2nc2ccc(cc12)OCCOCCOCCOCCOCCOCCO3 | > 10 | > 10 | > 10 | > 10 | > 10 | > 10 | > 10 | > 10 | > 10 | > 10 |
| CCNC(=S)NNC(=O)CSc1nc2ccc(I)cc2c(=O)n1Cc1ccccc1 | > 24.4 | > 100 | > 100 | > 100 | > 100 | > 100 | > 100 | > 100 | > 100 | > 100 |
